Square brackets hold non-standard residues; d marks the D form. Ends that are not written are not given here. Peptide text beside a SMILES is read from it. pY = N[C@@H](Cc1ccc(OP(=O)(O)O)cc1)C(=O)O

The assay has as its system RasGAP^FL (full-length RasGAP) GAP activity toward H-Ras. Put plainly: In vitro GAP assay, single turnover fluorescence-based phosphate sensor. Conditions: 50 μM peptide, 25 nM RasGAP^FL, 0.8 μM GTP-H-Ras, 1 μM phosphate sensor, 20 mM Tris pH 8, 50 mM NaCl; first 10 min after Mg2+; n = 4 to 14, Mann-Whitney. The assay is classed as biochemical, human. An excerpt: Finally, to probe whether the conformational movements in the SH2-SH3-SH2 region nonetheless impact catalytic activity in vitro, we conducted GAP assays. […] Our SAXS data for RasGAP^232 may provide a basis for how this is achieved: by inducing local changes in 232 conformations upon peptide engagement. Therefore, we purified full-length RasGAP (residues 1–1047, termed RasGAP^FL, Fig. S2G) and assessed activity against purified H-Ras GTPase domain preloaded with GTP (residues 1–167, Fig. S2H) in a single turnover fluorescence-based phosphate sensor assay that monitors phosphate release in real time ([64]). We find that RasGAP^FL activates H-Ras, as expected (Fig. 6) ([61], [62]). […]
Figure 6 In vitro GAP assays.A, GAP assay for full-length RasGAP activation of GTP-loaded H-Ras. […] Initial rates calculated for each reaction using only the first 10 min after addition of Mg^2+, where the phosphate release rate was linear. […]
H-Ras was preloaded with GTP by mixing purified H-Ras^1-167 protein, 10 mM EDTA, and 10-fold excess GTP in 20 mM Tris pH 8, 100 mM NaCl for 1 h at room temperature. […] Fluorescence excitation and emission settings were 430 nm and 450 nm, respectively with a bandwidth of 10 nm, and readings were taken in 1-min intervals. […]

As to `CC[C@H](C)[C@H](NC(=O)[C@H](CCCNC(=N)N)NC(=O)[C@H](CC(C)C)NC(=O)[C@H](CO)NC(=O)[C@H](CC(=O)O)NC(=O)[C@H](CC(C)C)NC(=O)[C@@H]1CCCN1C(=O)[C@H](CCC(=O)O)NC(=O)[C@H](C)NC(=O)[C@H](Cc1ccc(OP(=O)(O)O)cc1)NC(=O)[C@H](CC(C)C)NC(=O)[C@H](C)NC(=O)[C@@H]1CCCN1C(=O)[C@@H]1CCCN1C(=O)[C@H](CO)NC(C)=O)C(=O)N[C@@H](C)C(=O)N1CCC[C@H]1C(=O)N[C@@H](CS)C(=O)N1CCC[C@H]1C(=O)N[C@@H](CO)C(=O)N[C@@H](CCC(N)=O)C(=O)N[C@@H](CC(=O)O)C(=O)N[C@@H](CO)C(=O)N[C@@H](CC(C)C)C(=O)N[C@@H](Cc1ccc(OP(=O)(O)O)cc1)C(=O)N[C@@H](CO)C(=O)N[C@@H](CC(=O)O)C(=O)N1CCC[C@H]1C(=O)N[C@@H](CC(C)C)C(=O)N[C@@H](CC(=O)O)C(=O)N[C@@H](CO)C(=O)N[C@H](C(N)=O)[C@@H](C)O` [pYpY Dok1] (Ac-SPPAL[pY]AEPLDSLRIAPCPSQDSL[pY]SDPLDST-NH2), the “effect of peptide on in vitro GAP activity (initial rate of phosphate release)” value was “do not impact GAP activity”.
The entry for “SD[pY]AEPMDAVVKPRNEEENI[pY]SVPH [pYpY p190RhoGAP-A, Doubly phosphorylated p190RhoGAP-A peptide (pY1087, pY1105)]” is “do not impact GAP activity”.

Values taken from PMC10470053, “Diverse p120RasGAP interactions with doubly phosphorylated partners EphB4, p190RhoGAP, and Dok1” (The Journal of Biological Chemistry, 2023).
